Values of other authors as cited in patent US10047050B2, “3,4-di-substituted pyridine compound, methods of using and compositions comprising the same” (ARDEA BIOSCIENCES, INC., priority 2011, dated 2018).

Conditions: cited from earlier work
[1] = individuals treated with probenecid

Oc1ncnc2[nH]ncc12 [Allopurinol, allopurinol]
incidence of side effects (of all individuals treated with the drug): 20%

CCCN(CCC)S(=O)(=O)c1ccc(C(=O)O)cc1 [probenecid]
individuals who develop intolerance [1]: one-third | individuals who fail to achieve reduction of serum uric acid levels <6 mg/dL [1]: 25-50%
